Where two headings read alike, the source gives them in different places.
Experiments:
[1] = target: SHP-2 full length protein (Homo sapiens (Human), UniProt Q06124); experiment: SHP-2 biochemical DiFMUP pseudosubstrate-fluorogenic assay; conditions: 0.2 nM SHP-2, 1 μM IRS-1 activator peptide, 50 μM DiFMUP; read-out: SHP2 IC50
Method in brief: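 In-house recombinant full-length SHP-2 preincubated 90 min at room temperature with compounds (1:3 series, 10,000–0.005 nM), then DiFMUP substrate added at 50 μM final for 30 min more. Fluorescence normalised to DMSO wells (100%) and IC50 derived by curve fitting.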

NCI-H358 cells = experiment: NCI-H358 3D tumor spheroid growth inhibition; type: cell-based; conditions: Homo sapiens, NCI-H358, 168 h, read-out: H358 EC50
Method in brief: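 Cells seeded at 1000/well in ultra-low-attachment plates at 37 °C, 5% CO2 to form spheroids, then incubated a further 7 days with compounds. Viability by 3D CellTiter Glo luminescence; % inhibition versus DMSO wells, with normalized cellular IC50 reported as EC50.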

[2] = 3D spheroids, 7 days, 3D CellTiter Glo, cellular IC50 designated EC50

Row | IC50 [1] [nM] | EC50 (NCI-H358 cells; [2]) [nM] | Structure (SMILES) | EC50 (NCI-H358 cells) [nM]
1 | 7.1 | 170 | C[C@@H]1OCC2(CCN(c3ncc(Sc4cc(N)nc5ccccc45)c4nccn34)CC2)[C@@H]1N [Example 111, (3S,4S)-8-(8-((2-aminoquinolin-4-yl)thio)imidazo[1,2-c]pyrimidin-5-yl)-3-methyl-2-oxa-8-azaspiro[4.5]decan-4-amine] | –
2 | 10 | 56 | CC(=O)Nc1cccc2c(Sc3cnc(N4CCC5(CC4)CO[C@@H](C)[C@H]5N)n4ccnc34)ccnc12 [Example 112, N-(4-((5-((3S,4S)-4-amino-3-methyl-2-oxa-8-azaspiro[4.5]decan-8-yl)imidazo[1,2-c]pyrimidin-8-yl)thio)quinolin-8-yl)acetamide] | –
3 | 11 | 340 | C[C@@H]1OCC2(CCN(c3ncc(Sc4ccnc5c(C(N)=O)cccc45)c4nccn34)CC2)[C@@H]1N [Example 113, 4-((5-((3S,4S)-4-amino-3-methyl-2-oxa-8-azaspiro[4.5]decan-8-yl)imidazo[1,2-c]pyrimidin-8-yl)thio)quinoline-8-carboxamide] | –
4 | 6.8 | 64 | C[C@@H]1OCC2(CCN(c3ncc(Sc4ccnc5ccccc45)c4nccn34)CC2)[C@@H]1N [Example 114, (3S,4S)-3-methyl-8-(8-(quinolin-4-ylthio)imidazo[1,2-c]pyrimidin-5-yl)-2-oxa-8-azaspiro[4.5]decan-4-amine] | –
5 | 8.4 | 90 | C[C@@H]1OCC2(CCN(c3ncc(Sc4ccnc5ccc(F)cc45)c4nccn34)CC2)[C@@H]1N [Example 115, (3S,4S)-8-(8-((6-fluoroquinolin-4-yl)thio)imidazo[1,2-c]pyrimidin-5-yl)-3-methyl-2-oxa-8-azaspiro[4.5]decan-4-amine] | –
6 | 8 | 72 | C[C@@H]1OCC2(CCN(c3ncc(Sc4ccnc5cc(F)ccc45)c4nccn34)CC2)[C@@H]1N [Example 116, (3S,4S)-8-(8-((7-fluoroquinolin-4-yl)thio)imidazo[1,2-c]pyrimidin-5-yl)-3-methyl-2-oxa-8-azaspiro[4.5]decan-4-amine] | –
7 | > 10000 | > 12500 | C[C@@H]1OCC2(CCN(c3ncc(Sc4ncnc5ccccc45)c4nccn34)CC2)[C@@H]1N [Example 117, (3S,4S)-3-methyl-8-(8-(quinazolin-4-ylthio)imidazo[1,2-c]pyrimidin-5-yl)-2-oxa-8-azaspiro[4.5]decan-4-amine] | –
8 | 73 | 2200 | NCC1CCN(c2ncc(Sc3cccc(Cl)c3Cl)c3nccn23)CC1 [Example 119, (1-(8-((2,3-dichlorophenyl)thio)imidazo[1,2-c]pyrimidin-5-yl)piperidin-4-yl)methanamine] | –
9 | 26 | 500 | C[C@@H]1OCC2(CCN(c3ncc(Sc4ccc(C(N)=O)c5ccccc45)c4nccn34)CC2)[C@@H]1N [Example 120, 4-((5-((3S,4S)-4-amino-3-methyl-2-oxa-8-azaspiro[4.5]decan-8-yl)imidazo[1,2-c]pyrimidin-8-yl)thio)-1-naphthamide] | –
10 | 9.1 | 70 | C[C@@H]1OCC2(CCN(c3ncc(Sc4ccnc5c(F)cccc45)c4nccn34)CC2)[C@@H]1N [Example 122, (3S,4S)-8-(8-((8-fluoroquinolin-4-yl)thio)imidazo[1,2-c]pyrimidin-5-yl)-3-methyl-2-oxa-8-azaspiro[4.5]decan-4-amine] | –
11 | 6.8 | 95 | COc1ccc2c(Sc3cnc(N4CCC5(CC4)CO[C@@H](C)[C@H]5N)n4ccnc34)ccnc2c1 [Example 123, (3S,4S)-8-(8-((7-methoxyquinolin-4-yl)thio)imidazo[1,2-c]pyrimidin-5-yl)-3-methyl-2-oxa-8-azaspiro[4.5]decan-4-amine] | –
12 | 23 | 750 | NC1Cc2ccccc2C12CCN(c1ncc(Sc3cccc(Cl)c3Cl)c3nccn13)CC2 (centres unmarked) [Example 124, 1′-(8-((2,3-dichlorophenyl)thio)imidazo[1,2-c]pyrimidin-5-yl)-2,3-dihydrospiro[indene-1,4′-piperidin]-2-amine] | –
13 | 15 | 120 | C[C@@H]1OCC2(CCN(c3ncc(Sc4ccnc5cnccc45)c4nccn34)CC2)[C@@H]1N [Example 126, (3S,4S)-8-(8-((1,7-naphthyridin-4-yl)thio)imidazo[1,2-c]pyrimidin-5-yl)-3-methyl-2-oxa-8-azaspiro[4.5]decan-4-amine] | –
14 | 30 | 270 | C[C@@H]1OCC2(CCN(c3ncc(Sc4ccnc5ccc(C#N)cc45)c4nccn34)CC2)[C@@H]1N [Example 127, 4-((5-((3S,4S)-4-amino-3-methyl-2-oxa-8-azaspiro[4.5]decan-8-yl)imidazo[1,2-c]pyrimidin-8-yl)thio)quinoline-6-carbonitrile] | –
15 | 14 | 59 | C[C@@H]1OCC2(CCN(c3ncc(Sc4ccnc5cccnc45)c4nccn34)CC2)[C@@H]1N [Example 128, (3S,4S)-8-(8-((1,5-naphthyridin-4-yl)thio)imidazo[1,2-c]pyrimidin-5-yl)-3-methyl-2-oxa-8-azaspiro[4.5]decan-4-amine] | –
16 | 10 | 150 | C[C@@H]1OCC2(CCN(c3ncc(Sc4cccc5ncccc45)c4nccn34)CC2)[C@@H]1N [Example 129, (3S,4S)-3-methyl-8-(8-(quinolin-5-ylthio)imidazo[1,2-c]pyrimidin-5-yl)-2-oxa-8-azaspiro[4.5]decan-4-amine] | –
17 | 5.7 | 57 | C[C@@H]1OCC2(CCN(c3ncc(Sc4ccnc5[nH]ccc45)c4nccn34)CC2)[C@@H]1N [Example 130, (3S,4S)-8-(8-((1H-pyrrolo[2,3-b]pyridin-4-yl)thio)imidazo[1,2-c]pyrimidin-5-yl)-3-methyl-2-oxa-8-azaspiro[4.5]decan-4-amine] | –
18 | 27 | 2100 | C[C@@H]1OCC2(CCN(c3ncc(Sc4ccnc5[nH]cnc45)c4nccn34)CC2)[C@@H]1N [Example 131, (3S,4S)-8-(8-((3H-imidazo[4,5-b]pyridin-7-yl)thio)imidazo[1,2-c]pyrimidin-5-yl)-3-methyl-2-oxa-8-azaspiro[4.5]decan-4-amine] | –
19 | 22 | 290 | COc1ccc2nccc(Sc3cnc(N4CCC5(CC4)CO[C@@H](C)[C@H]5N)n4ccnc34)c2c1 [Example 132, (3S,4S)-8-(8-((6-methoxyquinolin-4-yl)thio)imidazo[1,2-c]pyrimidin-5-yl)-3-methyl-2-oxa-8-azaspiro[4.5]decan-4-amine] | –
20 | 5.4 | 14 | Cc1nc(N2CCC3(CC2)Cc2ccccc2[C@H]3N)n2ccnc2c1-c1cccc(Cl)c1Cl [Example 135, (S)-1′-(8-(2,3-dichlorophenyl)-7-methylimidazo[1,2-c]pyrimidin-5-yl)-1,3-dihydrospiro[indene-2,4′-piperidin]-1-amine] | –
21 | 4.3 | 130 | C[C@@H]1OCC2(CCN(c3ncc(Sc4cccc5ccccc45)c4nccn34)CC2)[C@@H]1N [Example 136, (3S,4S)-3-methyl-8-(8-(naphthalen-1-ylthio)imidazo[1,2-c]pyrimidin-5-yl)-2-oxa-8-azaspiro[4.5]decan-4-amine] | –

Row | Structure (SMILES) | IC50 [1] [nM] | EC50 (NCI-H358 cells; [2]) [nM] | EC50 (NCI-H358 cells) [nM]
22 | Nc1nccc(Sc2cnc(N3CCC4(CC3)Cc3ccccc3[C@H]4N)n3ccnc23)c1Cl [Example 121, (S)-1′-(8-((2-amino-3-chloropyridin-4-yl)thio)imidazo[1,2-c]pyrimidin-5-yl)-1,3-dihydrospiro[indene-2,4′-piperidin]-1 amine] | 4.8 | – | 4.2
23 | N[C@@H]1c2ccccc2CC12CCN(c1ncc(Sc3ccnc4sccc34)c3nccn13)CC2 [Example 138, (S)-1′-(8-(thieno[2,3-b]pyridin-4-ylthio)imidazo[1,2-c]pyrimidin-5-yl)-1,3-dihydrospiro[indene-2,4′-piperidin]-1-amine] | 2.2 | 11 | –
24 | N[C@@H]1c2ccccc2CC12CCN(c1ncc(Sc3ccnc4ccsc34)c3nccn13)CC2 [Example 139, (S)-1′-(8-(thieno[3,2-b]pyridin-7-ylthio)imidazo[1,2-c]pyrimidin-5-yl)-1,3-dihydrospiro[indene-2,4′-piperidin]-1-amine] | 1.7 | 8.9 | –
25 | N[C@@H]1c2ccccc2CC12CCN(c1ncc(Sc3cccc4cnsc34)c3nccn13)CC2 [Example 140, (S)-1′-(8-(benzo[d]isothiazol-7-ylthio)imidazo[1,2-c]pyrimidin-5-yl)-1,3-dihydrospiro[indene-2,4′-piperidin]-1-amine] | 2.6 | 18 | –
26 | CSc1ccccc1Sc1cnc(N2CCC3(CC2)Cc2ccccc2[C@H]3N)n2ccnc12 [Example 141, (S)-1′-(8-((2-(methylthio)phenyl)thio)imidazo[1,2-c]pyrimidin-5-yl)-1,3-dihydrospiro[indene-2,4′-piperidin]-1-amine] | 1.8 | 30 | –
27 | CCSc1ccccc1Sc1cnc(N2CCC3(CC2)Cc2ccccc2[C@H]3N)n2ccnc12 [Example 142, (S)-1′-(8-((2-(ethylthio)phenyl)thio)imidazo[1,2-c]pyrimidin-5-yl)-1,3-dihydrospiro[indene-2,4′-piperidin]-1-amine] | 4 | 60 | –
28 | CC(C)Sc1ccccc1Sc1cnc(N2CCC3(CC2)Cc2ccccc2[C@H]3N)n2ccnc12 [Example 143, (S)-1′-(8-((2-(isopropylthio)phenyl)thio)imidazo[1,2-c]pyrimidin-5-yl)-1,3-dihydrospiro[indene-2,4′-piperidin]-1-amine] | 11 | 260 | –

Source: US11179397B2, “Imidazopyrimidine derivatives” (Gilead Sciences, Inc., priority 2018, dated 2021)
